Measured values as given in patent US9120776B2, “Condensed heterocyclic compound” (Takeda Pharmaceutical Company Limited, priority 2011, dated 2015).

Assays:
[1] = test system: human PBMC; experiment: IL17 Production Test in Human PBMC; type: cell-based; conditions: 72 h, inhibitory rate at 10 μM of test compound, anti-CD3/CD28 stimulation, 3 days, IL-17A by ELISA
Procedure: Peripheral blood mononuclear cells (PBMC) collected from human peripheral blood by a density gradient centrifugation method were stimulated by Dynabeads (registered trade mark; anti-CD3/CD28 antibody) and cultured at 37° C. for 3 days. The compound was dissolved in DMSO and then added thereto. After culture for 3 days under such conditions, the concentration of IL-17A in the culture supernatant obtained by centrifugation was measured by ELISA to evaluate the effect of the compound on IL-17 production.

[2] = target: T1, RORγt (Homo sapiens, UniProt P51449); experiment: Cofactor Recruitment Test (Alpha Screen, biotinylated SRC-1 peptide); type: biochemical; parameters: histidine tag (implied by the Histidine Detection Kit); conditions: signal value inhibitory rate at test compound 1 μM
T1 sequence (P51449 1-497 isoform P51449-2): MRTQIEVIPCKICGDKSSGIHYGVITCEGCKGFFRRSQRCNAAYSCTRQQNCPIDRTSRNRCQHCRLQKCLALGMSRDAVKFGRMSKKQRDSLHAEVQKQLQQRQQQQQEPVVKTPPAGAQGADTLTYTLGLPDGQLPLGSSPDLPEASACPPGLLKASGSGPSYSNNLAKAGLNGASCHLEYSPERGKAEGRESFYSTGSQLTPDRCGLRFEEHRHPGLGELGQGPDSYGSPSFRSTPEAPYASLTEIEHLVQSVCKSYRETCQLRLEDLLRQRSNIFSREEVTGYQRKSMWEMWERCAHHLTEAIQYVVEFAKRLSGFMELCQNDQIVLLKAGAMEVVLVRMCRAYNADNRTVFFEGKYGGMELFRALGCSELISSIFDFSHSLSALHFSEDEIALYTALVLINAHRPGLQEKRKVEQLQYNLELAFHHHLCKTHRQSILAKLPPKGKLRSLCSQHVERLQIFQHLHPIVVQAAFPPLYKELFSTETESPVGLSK
Procedure: Cofactor recruitment test was performed by Alpha Screen (Histidine Detection Kit, PerkinElmer) method. First, a test compound diluted with an assay buffer (50 mM Tris-HCl (pH 7.5), 50 mM KCl, 1 mM DTT, 0.1% BSA) was added to a 384 well plate by 5 μL each. […] The mixture was stood in a dark place for 1 hr, and the signal value was measured by Envision (PerkinElmer).

[3] = target: T1, RORγt; experiment: RORγt Binding Test (TR-FRET, fluorescent-labeled cholesterol); parameters: histidine tag (implied by the Histidine Detection Kit); conditions: binding inhibitory rate of fluorescent-labeled cholesterol to RORγt at test compound 1 μM
Procedure: The binding activity of the test compound to RORγt was measured by a time resolved fluorescence resonance energy transfer method (TR-FRET) utilizing histidine-tagged RORγt, fluorescent-labeled cholesterol (BODIPY-cholesterol, AVIVA) and terbium-labeled anti-histidine tag antibody (Invitrogen). First, a test compound diluted with an assay buffer (20 mM Tris-HCl (pH 7.5), 100 mM NaCl, 1 mM DTT, 0.1% BSA) was added to a 384 well plate by 3 μL each. Then, RORγt diluted with an assay buffer to 240 nM was added by 3 μL each, after which fluorescent-labeled cholesterol diluted with the assay buffer to 12 μM was added by 3 μL each, and the mixture was stood at room temperature for 20 min. Thereafter, a terbium-labeled anti-histidine tag antibody diluted with the assay buffer to 8 nM was added by 3 μL each. The mixture was stood at room temperature for 20 min, and fluorescence intensity (excitation wavelength 320 nm, fluorescence wavelength 520 nm, delay time 100 microseconds) was measured by Envision (PerkinElmer).

[4] = test system: Th17 cells; experiment: Human Th17 Cell Differentiation Test (IL-17A in culture supernatant, ELISA); type: cell-based; conditions: 144 h; inhibitory rate at 10 μM of test compound; human CD4 positive naive T cells, 6 days, IL-17A by ELISA
Procedure: CD4 positive naive T cells were isolated from peripheral blood mononuclear cells (PBMC) collected from human peripheral blood by a density gradient centrifugation method. The CD4 positive naive T cells were seeded in a 96 well plate (2×10^4 cells/well), and stimulated (37° C. for culture) with anti-CD 3/28Ab Dynabeads (Invitrogen) for 6 days in the presence of IL-1β, IL-6, IL-23, TGFβ, anti-IFNγ Ab (BioLegend) and anti-IL-4 Ab (BioLegend) to differentiate into Th17 cells. The compound was dissolved in DMSO and then added thereto. After culture for 6 days, the concentration of IL-17A in the culture supernatant obtained by centrifugation was measured by ELISA to evaluate differentiation of the Th17 cells.

[5] = target: T1, RORγt; experiment: Jurkat Reporter Test (human IL-17 ROR response element luciferase, RORγt vector); type: cell-based; conditions: luminescence level inhibitory rate at test compound 3 μM, Jurkat cells; read-out: inhibitory rate (%)
Procedure: The Jurkat cells used for the reporter test were cultured in a culture medium (RPMI (Invitrogen), 10% FCS (AusGeneX), 100 U/mL penicillin, 100 μg/mL streptomycin). On the day of the test, 4×10^7 cells were recovered by a centrifugal operation (1000 rpm, 5 min.) and suspended in PBS (phosphate buffered saline) (Invitrogen). Thereafter, the cells were recovered again by a centrifugal operation, and suspended in 2 mL of R buffer (NEON transfection kit, Invitrogen). […] Gene transfer was performed by Electroporation apparatus (NEON, Invitrogen) under the conditions of pulse voltage 1350 V, interval 10 milliseconds, number of times 3. The cells after gene transfer were suspended in 40 mL of a reaction medium (RPMI, 10% Lipid reduced FCS (HyClone), 10 mM HEPES (pH 7.5), 100 U/mL penicillin, 100 μg/mL streptomycin, 5 μM lovastatin), and plated in a 96 well plate by 90 μL each. A test compound diluted with the reaction medium was added by 10 μL each, and the cells were cultured overnight in an incubator. Bright-Glo (Promega) was added by 100 μL each, and the mixture was stirred at room temperature for 10 min, and the luminescence level was measured by Envision (PerkinElmer).

[6] = test system: Th17 cells; experiment: Mouse Th17 Cell Differentiation Test (IL-17A in culture supernatant, ELISA); type: cell-based; conditions: 96 h, inhibitory rate at 10 μM of test compound, mouse CD4 positive naive T cells, 4 days, IL-17A by ELISA
Procedure: CD4 positive naive T cells were collected from the spleen cells of BALB/c mice (female, 8-11w, Charles River Laboratories Japan, Inc.) using CD4+CD62L+ T Cell Isolation kit II (Miltenyi Biotec). The CD4 positive naive T cells in a 96 well plate (3×10^5 cells/well) were stimulated (37° C. for culture) with anti-mouse CD3ε antibody (Bio X cell) (10 μg/mL, solid phase) and anti-CD28 antibody (Bio X cell) (5 μg/mL) for 4 days in the presence of anti-IFN-γ antibody (BioLegend), anti-IL-4 antibody (BioLegend), anti-IL-2 antibody (BioLegend), IL-6, TGF-β and IL-23 to differentiate into Th17 cells. The compound was dissolved in DMSO and then added thereto. The cells were cultured under these conditions for 4 days, and differentiation of the Th17 cells was evaluated by using the concentration of IL-17A, which was measured by ELISA, in the culture supernatant obtained by centrifugation.

| Structure (SMILES) | inhibition at 10 µM [1] | inhibition at 1 µM [2] | inhibition at 1 µM [3] | inhibition at 10 µM [4] | inhibition at 3 µM [5] | inhibition at 10 µM [6] | inhibition at 10 µM ([6]; Mus musculus, CD4 positive) |
| --- | --- | --- | --- | --- | --- | --- | --- |
| CCn1c(C)c(C)c2cc(NC(=O)CC(C)CC(=O)Nc3ccc(C#N)cc3)ccc21 (stereo not drawn) [Example 3, N-(4-cyanophenyl)-N′-(1-ethyl-2,3-dimethyl-1H-indol-5-yl)-3-methylpentanediamide] | 73.3% | 99.7% | 88.2% | 80% | 82.6% | 97.1% | – |
| CCn1c2c(c3cc(NC(=O)CC(C)CC(=O)Nc4ccc(C#N)cc4)ccc31)CCCC2 (stereo not drawn) [Example 4, N-(4-cyanophenyl)-N′-(9-ethyl-2,3,4,9-tetrahydro-1H-carbazol-6-yl)-3-methylpentanediamide] | 88.3% | – | – | 100% | – | – | 97% |
| CCn1c2ccccc2c2cc(NC(=O)CCCC(=O)Nc3ccc(C#N)cc3)ccc21 [Example 16, N-(4-cyanophenyl)-N′-(9-ethyl-9H-carbazol-3-yl)pentanediamide] | 91% | – | – | 96.2% | – | – | 96% |
| CCn1c2ccccc2c2cc(NC(=O)CC(C)CC(=O)Nc3ccc(C#N)c(C(F)(F)F)c3)ccc21 (stereo not drawn) [Example 18, N-[4-cyano-3-(trifluoromethyl)phenyl]-N′-(9-ethyl-9H-carbazol-3-yl)-3-methylpentanediamide] | 96% | – | – | 98.5% | – | – | 95.8% |
| CCCn1c2c(c3cc(NC(=O)CC(C)CC(=O)Nc4ccc(C#N)cc4)ccc31)CCCC2 (stereo not drawn) [Example 19, N-(4-cyanophenyl)-3-methyl-N′-(9-propyl-2,3,4,9-tetrahydro-1H-carbazol-6-yl)pentanediamide] | 87% | 101% | 98.9% | 95.2% | 103% | 95.8% | – |
| CC(C)Cn1c2c(c3cc(NC(=O)CC(C)CC(=O)Nc4ccc(C#N)cc4)ccc31)CCCC2 (stereo not drawn) [Example 20, N-(4-cyanophenyl)-3-methyl-N′-[9-(2-methylpropyl)-2,3,4,9-tetrahydro-1H-carbazol-6-yl]pentanediamide] | 84% | 101% | 98.7% | 89.9% | 102% | 95.8% | – |
| CCn1c2ccccc2c2cc(NC(=O)CC(C)(O)CCOc3ccc(C#N)c(Cl)c3)ccc21 (stereo not drawn) [Example 30, 5-(3-chloro-4-cyanophenoxy)-N-(9-ethyl-9H-carbazol-3-yl)-3-hydroxy-3-methylpentanamide] | 100% | 100% | 94.4% | 100% | 92.5% | 96.1% | – |
